In the assay the target is HPK1 (MAP4K1) (Homo sapiens, UniProt Q92918). In words: FRET Assay for HPK1 (MAP4K1): one step binding assay, displacement of labeled tracer. The following applies: for inhibition at 1 µM: 1 μM compound; for inhibition at 1 µM / inhibition at 10 µM: FRET ratio 665/620, percent of control; for inhibition at 10 µM: 10 μM compound; for IC50: dose response curve, nonlinear regression. The procedure, abridged: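 TR-FRET tracer-displacement binding assay. GST-tagged HPK1 (10 nM) and Eu-anti-GST antibody (4 nM) were pre-incubated with compound on ice for 15 min in 50 mM HEPES pH 7.5, 10 mM MgCl2, 1 mM EGTA, 0.01% Brij-35 (3% DMSO final). Kinase Tracer 222 (20 nM) was then added for 1 h at room temperature. IC50 came from nonlinear regression of percent of control; percent inhibition was also given at 1.0 and 10.0 μM.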
Sequence of HPK1 (MAP4K1) (Q92918 whole entry): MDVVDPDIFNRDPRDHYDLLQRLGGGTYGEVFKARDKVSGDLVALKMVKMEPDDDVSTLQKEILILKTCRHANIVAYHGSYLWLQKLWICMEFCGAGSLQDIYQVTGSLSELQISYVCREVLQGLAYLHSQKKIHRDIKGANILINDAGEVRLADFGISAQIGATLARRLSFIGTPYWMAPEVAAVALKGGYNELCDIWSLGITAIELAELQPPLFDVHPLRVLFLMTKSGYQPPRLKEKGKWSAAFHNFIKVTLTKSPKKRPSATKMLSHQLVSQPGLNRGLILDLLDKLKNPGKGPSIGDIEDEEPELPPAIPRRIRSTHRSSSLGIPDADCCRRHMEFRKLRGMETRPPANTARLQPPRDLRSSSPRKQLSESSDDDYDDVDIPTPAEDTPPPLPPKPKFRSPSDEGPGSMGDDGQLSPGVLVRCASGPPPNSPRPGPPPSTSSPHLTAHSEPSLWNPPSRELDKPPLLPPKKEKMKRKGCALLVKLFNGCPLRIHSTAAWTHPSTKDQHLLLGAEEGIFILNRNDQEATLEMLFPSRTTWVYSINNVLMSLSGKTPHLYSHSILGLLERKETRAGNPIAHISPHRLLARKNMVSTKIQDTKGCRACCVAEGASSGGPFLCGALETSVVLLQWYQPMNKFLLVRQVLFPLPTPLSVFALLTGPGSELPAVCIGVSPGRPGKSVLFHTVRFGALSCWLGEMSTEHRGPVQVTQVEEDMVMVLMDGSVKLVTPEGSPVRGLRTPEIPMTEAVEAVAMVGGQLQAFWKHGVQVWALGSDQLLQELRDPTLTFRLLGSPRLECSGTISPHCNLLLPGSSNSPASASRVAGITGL

Structures are written as SMILES.

Drawing on patent publication US20230009626A1 (ICHNOS SCIENCES S.A., priority 2018, published 2023), this text covers inhibition and IC50 for 24 compounds.

As to `COc1cccc(F)c1-c1cnc2c(c1)/C(=C(\C)Nc1cnn(C)c1)C(=O)N2` [Example 56, (Z)-5-(2-Fluoro-6-methoxyphenyl)-3-(1-((1-methyl-1H-pyrazol-4-yl)amino)ethylidene)-1H-pyrrolo[2,3-b]pyridin-2(3H)-one], the inhibition (usually the percentage by which the read-out fell short of the control) at 1 µM was 66.8%, the inhibition at 10 µM stood at 75.2% and the IC50 (usually the concentration at which inhibition is half-maximal) is 100 to 500 nM.

For the compound `C/C(Nc1cnn(C(C)C)c1)=C1/C(=O)Nc2cnc(-c3cnccc3C)cc21` [Example 89, (Z)-3-(1-((1-Isopropyl-1H-pyrazol-4-yl)amino)ethylidene)-5-(4-methylpyridin-3-yl)-1H-pyrrolo[2,3-c]pyridin-2(3H)-one], the inhibition at 1 µM amounted to 77.3%, the inhibition at 10 µM was 76% and the 50% inhibitory concentration (IC50) is less than 50 nM.

On to `C/C(Nc1cc(C)n(CC(C)(C)O)n1)=C1/C(=O)Nc2cnc(-c3cnccc3C)cc21` [Example 181, (Z)-3-(1-((1-(2-Hydroxy-2-methylpropyl)-5-methyl-1H-pyrazol-3-yl)amino)ethylidene)-5-(4-methylpyridin-3-yl)-1H-pyrrolo[2,3-c]pyridin-2(3H)-one], for which the inhibition at 1 µM was 76.8%, the inhibition at 10 µM stood at 80.8% and the IC50 is less than 50 nM.

As to `C/C(Nc1ccn(C[C@H](C)O)n1)=C1/C(=O)Nc2cnc(-c3cnccc3C)cc21` [Example 133, (S,Z)-3-(1-((1-(2-Hydroxypropyl)-1H-pyrazol-3-yl)amino)ethylidene)-5-(4-methylpyridin-3-yl)-1H-pyrrolo[2,3-c]pyridin-2(3H)-one], the inhibition at 1 µM came out at 79.9%, the inhibition at 10 µM was 88% and the IC50 is less than 50 nM.

For the compound `CNC(=O)c1cc(N/C(C)=C2\C(=O)Nc3cnc(-c4cnccc4C)cc32)nn1C` [Example 75, (Z)-N,1-Dimethyl-3-((1-(5-(4-methylpyridin-3-yl)-2-oxo-1H-pyrrolo[2,3-c]pyridin-3(2H)-ylidene)ethyl)amino)-1H-pyrazole-5-carboxamide], the inhibition at 1 µM stood at 71%, the inhibition at 10 µM amounted to 74% and the IC50 was less than 50 nM.

On to `CC/C(Nc1cnn(C)c1)=C1/C(=O)Nc2cnc(-c3c(F)cccc3OC)cc21` [Example 32, (Z)-5-(2-Fluoro-6-methoxyphenyl)-3-(1-((1-methyl-1H-pyrazol-4-yl)amino)propylidene)-1H-pyrrolo[2,3-c]pyridin-2(3H)-one], for which the inhibition at 1 µM was found to be 90.3%, the inhibition at 10 µM was 100% and the IC50 is less than 50 nM.

Regarding `C/C(Nc1ccn(C(C)C#N)n1)=C1/C(=O)Nc2cnc(-c3cnccc3C)cc21` (stereo in doubt) [Example 116], the inhibition at 1 µM is 75.9% and the IC50 is less than 50 nM.

As to `C/C(Nc1cc(C)n(C)n1)=C1/C(=O)Nc2cnc(-c3cc(F)ccc3C)cc21` [Example 210, (Z)-3-(1-((1,5-Dimethyl-1H-pyrazol-3-yl)amino)ethylidene)-5-(5-fluoro-2-methylphenyl)-1H-pyrrolo[2,3-c]pyridin-2(3H)-one], the inhibition at 1 µM was 70.8% and the IC50 was less than 50 nM.

Regarding `C/C(Nc1cnn([C@@H](C)C#N)c1)=C1/C(=O)Nc2cnc(-c3cnccc3C)cc21` [Example 167, (S,Z)-2-(4-((1-(5-(4-Methylpyridin-3-yl)-2-oxo-1H-pyrrolo[2,3-c]pyridin-3(2H)-ylidene)ethyl)amino)-1H-pyrazol-1-yl)propanenitrile], the inhibition at 1 µM was found to be 69.2%, the inhibition at 10 µM was found to be 67.5% and the IC50 was less than 50 nM.

Take `C/C(Nc1ccn(C(C)(C)C(N)=O)n1)=C1/C(=O)Nc2cnc(-c3cnccc3C)cc21` [Example 97, (Z)-2-Methyl-2-(3-((1-(5-(4-methylpyridin-3-yl)-2-oxo-1H-pyrrolo[2,3-c]pyridin-3(2H)-ylidene)ethyl)amino)-1H-pyrazol-1-yl)propanamide]: the inhibition at 1 µM is 59%, the inhibition at 10 µM stood at 59.9% and the IC50 was in the range of 100 to 500 nM.

Take `COc1cccc(F)c1-c1cc2c(cn1)NC(=O)/C2=C(/C)Nc1ccc(N2CCNCC2)nc1` [Example 125, (Z)-5-(2-Fluoro-6-methoxyphenyl)-3-(1-((6-(piperazin-1-yl)pyridin-3-yl)amino)ethylidene)-1H-pyrrolo[2,3-c]pyridin-2(3H)-one]: the inhibition at 1 µM amounted to 77.7%, the inhibition at 10 µM is 84.2% and the IC50 is less than 50 nM.

Take `COc1cccc(F)c1-c1ccc2c(c1)/C(=C(\C)Nc1ccc(N(C)C(=O)CN3CCN(C)CC3)cc1)C(=O)N2` [Example 7, (Z)-N-(4-((1-(5-(2-Fluoro-6-methoxyphenyl)-2-oxoindolin-3-ylidene)ethyl)amino)phenyl)-N-methyl-2-(4-methylpiperazin-1-yl)acetamide]: the inhibition at 1 µM worked out at 82.4%, the inhibition at 10 µM is 87.1% and the IC50 was less than 50 nM.

On to `C/C(Nc1ccn(C)n1)=C1/C(=O)Nc2cc(C#N)c(-c3cnccc3C)cc21` [Example 139, (Z)-3-(1-((1-Methyl-1H-pyrazol-3-yl)amino)ethylidene)-5-(4-methylpyridin-3-yl)-2-oxoindoline-6-carbonitrile], for which the inhibition at 1 µM is 77%, the inhibition at 10 µM turned out to be 84.5% and the IC50 is less than 50 nM.

With `C/C(Nc1cc(C)nn1C)=C1/C(=O)Nc2cnc(-c3cnccc3C)cc21` [Example 132, (Z)-3-(1-((1,3-Dimethyl-1H-pyrazol-5-yl)amino)ethylidene)-5-(4-methylpyridin-3-yl)-1H-pyrrolo[2,3-c]pyridin-2(3H)-one], the inhibition at 1 µM amounted to 81%, the inhibition at 10 µM was 80.9% and the IC50 was 100 to 500 nM.

On to `C/C(Nc1cc2n(n1)CC(=O)N(C(C)C)C2)=C1/C(=O)Nc2cnc(-c3cnccc3C)cc21` [Example 149, (Z)-5-Isopropyl-2-((1-(5-(4-methylpyridin-3-yl)-2-oxo-1H-pyrrolo[2,3-c]pyridin-3(2H)-ylidene)ethyl)amino)-4,5-dihydropyrazolo[1,5-a]pyrazin-6(7H)-one], for which the inhibition at 1 µM came out at 78.7%, the inhibition at 10 µM was 81.7% and the IC50 is less than 50 nM.

For the compound `COc1cccc(F)c1-c1cc2c(cc1C)NC(=O)/C2=C(/C)Nc1cnn(C)c1` [Example 21, (Z)-5-(2-Fluoro-6-methoxyphenyl)-6-methyl-3-(1-((1-methyl-1H-pyrazol-4-yl)amino)ethylidene)indolin-2-one], the inhibition at 1 µM worked out at 83.1%, the inhibition at 10 µM was 80% and the IC50 is less than 50 nM.

Regarding `C/C(Nc1cnn(CC[C@@H](C)O)c1)=C1/C(=O)Nc2cnc(-c3cnccc3C)cc21` [Example 165, (R,Z)-3-(1-((1-(3-Hydroxybutyl)-1H-pyrazol-4-yl)amino)ethylidene)-5-(4-methylpyridin-3-yl)-1H-pyrrolo[2,3-c]pyridin-2(3H)-one], the inhibition at 1 µM is 79.3%, the inhibition at 10 µM was determined as 71.8% and the IC50 was less than 50 nM.

As to `C/C(Nc1ccn(C)n1)=C1/C(=O)Nc2cccc(-c3cnccc3C)c21` [Example 157, (Z)-3-(1-((1-Methyl-1H-pyrazol-3-yl)amino)ethylidene)-4-(4-methylpyridin-3-yl)indolin-2-one], the inhibition at 1 µM turned out to be 54.5% and the inhibition at 10 µM stood at 66.5%.

Take `C/C(Nc1ccn(CCC(C)(C)O)n1)=C1/C(=O)Nc2cnc(-c3cnccc3C)cc21` [Example 111]: the inhibition at 1 µM amounted to 74.4%, the inhibition at 10 µM was determined as 74.3% and the IC50 is less than 50 nM.

As for `C/C(Nc1ccn(CC(=O)N2CCOCC2)n1)=C1/C(=O)Nc2cnc(-c3cnccc3C)cc21` [Example 131, (Z)-5-(4-Methylpyridin-3-yl)-3-(1-((1-(2-morpholino-2-oxoethyl)-1H-pyrazol-3-yl)amino)ethylidene)-1H-pyrrolo[2,3-c]pyridin-2(3H)-one], the inhibition at 1 µM was found to be 82.2%, the inhibition at 10 µM was 83.7% and the IC50 was less than 50 nM.

In the case of `C/C(Nc1cc2n(n1)CCOC2)=C1/C(=O)Nc2cnc(-c3c(C)cccc3F)cc21` [Example 192, (Z)-3-(1-((6,7-Dihydro-4H-pyrazolo[5,1-c][1,4]oxazin-2-yl)amino)ethylidene)-5-(2-fluoro-6-methylphenyl)-1H-pyrrolo[2,3-c]pyridin-2(3H)-one], the inhibition at 1 µM came out at 62.1%, the inhibition at 10 µM amounted to 68.3% and the IC50 is less than 50 nM.

Turning to `C/C(Nc1cc(C)n(C(C)(C)C#N)n1)=C1/C(=O)Nc2cnc(-c3c(C)cccc3F)cc21` [Example 207, (Z)-2-(3-((1-(5-(2-Fluoro-6-methylphenyl)-2-oxo-1H-pyrrolo[2,3-c]pyridin-3(2H)-ylidene)ethyl)amino)-5-methyl-1H-pyrazol-1-yl)-2-methylpropanenitrile], the inhibition at 1 µM is 73.8% and the IC50 was less than 50 nM.

On to `COCCn1cc(N/C(C)=C2\C(=O)Nc3cnc(-c4c(F)cccc4OC)cc32)cn1` [Example 39, (Z)-5-(2-Fluoro-6-methoxyphenyl)-3-(1-((1-(2-methoxyethyl)-1H-pyrazol-4-yl)amino)ethylidene)-1H-pyrrolo[2,3-c]pyridin-2(3H)-one], for which the inhibition at 1 µM worked out at 72.2%, the inhibition at 10 µM was 86.6% and the IC50 was less than 50 nM.

With `CCn1nc(N/C(C)=C2\C(=O)Nc3cnc(-c4c(C)cccc4F)cc32)cc1C` [Example 212, (Z)-3-(1-((1-Ethyl-5-methyl-1H-pyrazol-3-yl)amino)ethylidene)-5-(2-fluoro-6-methylphenyl)-1H-pyrrolo[2,3-c]pyridin-2(3H)-one], the inhibition at 1 µM turned out to be 63.1%, the inhibition at 10 µM is 74.4% and the half-inhibitory concentration (IC50) was less than 50 nM.
